Key:
[1] = test system: hepatocyte protein expression (hEPO); assay: Expression of hEPO induced by LNPs comprising the lipid and hEPO mRNA in mice; assay type: in vivo; settings: LNP with DSPC, cholesterol, PEG-1, mRNA encoding hEPO, CD-1 mice; for hEPO AUC: intravenous; for Mean 6 hr hEPO Concentration (mIU/mL): serum, 6 h after intravenous injection
Experimental: (§1) To assess potency of expression and metabolic stability of lipids of the disclosure the hepatocyte protein expression (hEPO) following administration of a nanoparticle of the disclosure (e.g., a loaded LNP) to mice was measured.
(§2) Lipid nanoparticles (LNPs) including DSPC as a phospholipid, cholesterol as a structural lipid, PEG-1 as a PEG lipid, a compound according to Formula (A), (A1), (A2), (A3), (B), (1), (I'), (I-X), (I-Y), (I-Ya) (IA), (Ia), (Ib), (Ic), (Id), (Ie), (If), (Ig), (II), (IIa), or (IIb), and an mRNA encoding hEPO were intravenously administered to CD-1 mice. The concentration of hEPO in serum was tested at 6 h after injection. […] Table 2. Expression of hEPO induced by administration of LNPs comprising lipids of the disclosure in mice and residual lipid levels in the liver.

[2] = Residual parent lipid levels in the liver after LNP administration to mice; assay type: in vivo; settings: 24 h after intravenous LNP administration, CD-1 mice
Experimental: as §1, §2

| SMILES | hEPO AUC [1] | Mean 6 hr hEPO Concentration (mIU/mL) [1] [mIU/mL] | Parent Lipid Remaining (nmol/g liver tissue) at 24 h [2] [nmol/g liver tissue] |
| --- | --- | --- | --- |
| CCCCCCCCCOC(=O)OCCCCCCN(CCO)CCCCCCCC(=O)OC(CCCCCCCC)CCCCCCCC [Compound 6, Heptadecan-9-yl 8-((2-hydroxyethyl)(6-(((nonyloxy)carbonyl)oxy)hexyl)amino)octanoate] | 8.19E+06 | 509181.4 | 3 ± 1 |
| CCCCCCCCC(CCCCCCCC)OC(=O)CCCCCCCN(CCO)CCCCCCOC(=O)OCCC(CCCCC)CCCCC [Compound 64, Heptadecan-9-yl 8-((2-hydroxyethyl)(6-((((3-pentyloctyl)oxy)carbonyl)oxy)hexyl)amino)octanoate] | 1.11E+07 | 735556.2 | 72 ± 17 |
| CCCCCCCCC(CCCCCCCC)OC(=O)CCCCCCCN(CCCCCCOC(=O)OCCC(CCCCCC)CCCCCC)CCCNc1c(NC)c(=O)c1=O [Compound 65, Heptadecan-9-yl 8-((6-((((3-hexylnonyl)oxy)carbonyl)oxy)hexyl)(3-((2-(methylamino)-3,4-dioxocyclobut-1-en-1-yl)amino)propyl)amino)octanoate] | 7.76E+06 | 521341.6 | 364 ± 58 |
| CCCCCCCCC(CCCCCCCC)OC(=O)CCCCCCCN(CCO)CCCCCCOC(=O)OCCC(CCCCCC)CCCCCC [Compound 66, Heptadecan-9-yl 8-((6-((((3-hexylnonyl)oxy)carbonyl)oxy)hexyl)(2-hydroxyethyl)amino)octanoate] | 9.77E+06 | 641899.1 | 67 ± 8 |
| CCCCCCCCC(CCCCCCCC)OC(=O)CCCCCCCN(CCCCCCOC(=O)OCCC(CCCCC)CCCCC)CCCNc1c(NC)c(=O)c1=O [Compound 67, Heptadecan-9-yl 8-((3-((2-(methylamino)-3,4-dioxocyclobut-1-en-1-yl)amino)propyl)(6-((((3-pentyloctyl)oxy)carbonyl)oxy)hexyl)amino)octanoate] | 1.31E+07 | 891982.2 | 94 ± 15 |

— patent EP4793267A1, “CARBONATE CONTAINING LIPID COMPOUNDS AND COMPOSITIONS FOR INTRACELLULAR DELIVERY OF THERAPEUTIC AGENTS” (ModernaTX, Inc., priority 2019, dated 2021)
